Legend:
[1] = tested on: indigenous stool microflora; assay: DGGE of PCR-amplified bacterial ribosomal RNA genes from stool (Example 3); format: in vivo, mice; settings: subcutaneous clindamycin
[2] = tested on: Candida glabrata A239; assay: Minimum-inhibitory concentration for Candida glabrata A239; format: cell-based; settings: clinical isolate A239
Description: Pathogens Studied: E. faecium C68, a previously described VanB-type clinical VRE isolate, was used for the following murine VRE experiments (Donskey et al., J. Microbial. Meth. 1807: 1-8, 2003). […] Klebsiella pneumoniae P62 is a clinical isolate that produces an SHV type extended-spectrum β-lactamase (ESBL). Candida glabrata A239 is a clinical isolate with a fluconazole minimum-inhibitory concentration of 2 μg/mL.

[3] = tested on: clinical isolate VanA strain of E. faecium (VRE); assay: VRE suppression in a mouse model (Example 1); format: in vivo, mice
Text: (§1) Mice were colonized with a clinical isolate VanA strain of E. faecium (VRE) isolated from a septicemic patient. A single inoculation of 5×10^8 cfu VRE by oral gavage (Day 0) was followed by treatment with vancomycin in the drinking water to maintain colonization. On day 22, each group received the same vancomycin-containing drinking water. […] The control group consisted of five mice, while the ramoplanin group consisted of four mice.

[4] = tested on: Total Enterococci; assay: VRE suppression in a mouse model (Example 1), total enterococci in faeces; format: in vivo, mice
Text: as §1

[5] = Day 22, prior to ramoplanin therapy
[6] = Day 29, completion of ramoplanin therapy
[7] = Day 36, 7 days after completion of ramoplanin therapy

CCC[C@@H]1C[C@@H](C(=O)N[C@@H]([C@H]2O[C@H](SC)[C@H](O)[C@@H](O)[C@H]2O)[C@H](C)Cl)N(C)C1 [clindamycin]
stool DGGE patterns, mean similarity indices in comparison to pre-treatment patterns [1]: 17%

OC(Cn1cncn1)(Cn1cncn1)c1ccc(F)cc1F [fluconazole]
minimum-inhibitory concentration [2]: 2 µg/mL

CN[C@H](CC(C)C)C(=O)N[C@H]1C(=O)N[C@@H](CC(N)=O)C(=O)N[C@H]2C(=O)N[C@H]3C(=O)N[C@H](C(=O)N[C@H](C(=O)O)c4cc(O)cc(O)c4-c4cc3ccc4O)[C@H](O)c3ccc(c(Cl)c3)Oc3cc2cc(c3O[C@@H]2O[C@H](CO)[C@@H](O)[C@H](O)[C@H]2O[C@H]2C[C@](C)(N)[C@H](O)[C@H](C)O2)Oc2ccc(cc2Cl)[C@H]1O [vancomycin]
Enterococci: VRE [3, 5]: 9.7 log 10 cfu/g faeces | Enterococci: VRE [3, 6]: 9.4 log 10 cfu/g faeces | % Mice with VRE ([3]; Day 29, completion of ramoplanin therapy (15 mg/kg/day in drinking water, with 25 mg/kg/day vancomycin)): 100% | % Mice with VRE [3, 7]: 100% | Enterococci: VRE [3, 7]: 9.3 log 10 cfu/g faeces | Enterococci: Total Enterococci [4, 5]: 9.6 log 10 cfu/g faeces | Enterococci: Total Enterococci [4, 6]: 9.3 log 10 cfu/g faeces | Enterococci: Total Enterococci [4, 7]: 9.6 log 10 cfu/g faeces
